The values that follow come from patent US7163946B2 (Ligand Pharmaceuticals Incorporated, priority 2002, dated 2007).

Holding throughout (format): cell-based
Assay [1] has as its target T1, hPR (Homo sapiens, UniProt P06401).
T1 sequence (P06401 1-933): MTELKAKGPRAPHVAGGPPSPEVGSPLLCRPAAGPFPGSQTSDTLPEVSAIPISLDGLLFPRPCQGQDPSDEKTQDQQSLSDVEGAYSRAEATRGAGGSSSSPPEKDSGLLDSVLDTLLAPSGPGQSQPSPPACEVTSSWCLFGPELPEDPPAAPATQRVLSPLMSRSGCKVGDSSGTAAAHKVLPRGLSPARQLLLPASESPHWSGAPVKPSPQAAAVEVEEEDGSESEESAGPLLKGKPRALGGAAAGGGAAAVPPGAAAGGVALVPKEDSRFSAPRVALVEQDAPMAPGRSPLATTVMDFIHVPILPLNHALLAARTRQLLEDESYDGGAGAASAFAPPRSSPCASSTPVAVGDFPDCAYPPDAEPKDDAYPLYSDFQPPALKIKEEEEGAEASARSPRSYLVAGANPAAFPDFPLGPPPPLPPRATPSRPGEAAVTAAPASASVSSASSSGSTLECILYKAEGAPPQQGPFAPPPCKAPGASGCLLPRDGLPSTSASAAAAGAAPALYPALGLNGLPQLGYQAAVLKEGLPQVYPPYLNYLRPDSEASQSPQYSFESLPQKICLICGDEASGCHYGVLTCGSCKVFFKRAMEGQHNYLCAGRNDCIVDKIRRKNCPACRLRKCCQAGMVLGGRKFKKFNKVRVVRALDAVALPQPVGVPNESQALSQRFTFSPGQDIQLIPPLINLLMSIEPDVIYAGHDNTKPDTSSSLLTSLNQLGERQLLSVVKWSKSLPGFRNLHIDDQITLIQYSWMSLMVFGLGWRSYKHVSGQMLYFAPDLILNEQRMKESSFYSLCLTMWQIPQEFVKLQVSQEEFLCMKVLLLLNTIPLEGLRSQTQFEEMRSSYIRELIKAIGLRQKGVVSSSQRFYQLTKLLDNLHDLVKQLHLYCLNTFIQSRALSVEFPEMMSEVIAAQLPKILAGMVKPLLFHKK
Briefly: hPR cotransfection assay in CV-1 cells, agonist mode. Conditions: for Emax: CV-1, CV-1 cells, read-out: hPR Agonist CV-1 Cells Eff. (%); for Emax / hPR Agonist CV-1 Cells Eff. (%): relative to maximal response of progesterone as 100%.
Protocol: (§1) Antagonist efficacy was determined as a function (%) of maximal inhibition of a reference agonist at EC50 concentration. All the cotransfection experiments were carried out in 96-well plates by automation (Beckman Biomomek automated workstation).

Assay [2] concerns the target T2, hPR (Homo sapiens, UniProt P06401).
T2 sequence (P06401 679-933 limits assumed): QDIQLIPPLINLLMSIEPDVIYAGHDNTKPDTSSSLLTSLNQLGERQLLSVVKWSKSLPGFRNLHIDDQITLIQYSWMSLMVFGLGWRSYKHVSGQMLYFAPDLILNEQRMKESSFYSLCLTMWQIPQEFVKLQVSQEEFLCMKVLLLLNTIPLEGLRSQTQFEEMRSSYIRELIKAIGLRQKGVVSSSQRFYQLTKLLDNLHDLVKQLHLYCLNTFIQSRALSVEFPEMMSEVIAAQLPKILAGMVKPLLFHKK
In words: T47D alkaline phosphatase assay, antagonist mode. Conditions: T47D human breast cancer cells; for Emax: read-out: hPR Antagonists T47D Cells Eff. (%).
Description: (§2) The potential tissue-selectivities of the selected analogues were examined by using the T47D alkaline phosphatase assay that was developed from human breast cancer cells with endogenous PRs.

In assay [3] the target is T1, hPR. Briefly: hPR cotransfection assay in CV-1 cells, antagonist mode. Conditions: for Emax: CV-1, CV-1 cells, read-out: hPR Antagonist CV-1 Cells Eff. (%); for Emax / hPR Antagonist CV-1 Cells Eff. (%): maximal inhibition of reference agonist at EC50 concentration.
Protocol: as §1
For assay [4], the target named is T2, hPR. In words: T47D alkaline phosphatase assay, agonist mode. Conditions: T47D human breast cancer cells; for Emax: T47D, read-out: hPR Agonist T47D cells Eff. (%).
Description: as §2
[5] abbreviates: Tables 3 and 4, values without footnote, read-out: hPR agonist potencies (EC50 in nM) in the cotransfection assay.

For `C[C@]12CCC(=O)C=C1[C@@H]1C[C@@H]1[C@H]1[C@@H]3[C@@H]4C[C@@H]4[C@@]4(CCC(=O)O4)[C@@]3(C)CC[C@@H]12` [Drospirenone, reference compound], the Emax was 87% in assay [1], < 20% in assay [2], < 20% in assay [3] and 117% in assay [4].
Broadly, the EC50 is the concentration giving half of the maximal effect. One may read the IC50 as the concentration that gives 50% inhibition. Regarding `CC1=CC(C)(C)Nc2ccc3c(c21)C(c1ccc(Cl)c(C)c1)Oc1c(F)cc(F)cc1-3` (single isomer, unassigned; (+)) [Compound 39, (+)-7,9-difluoro-5-(4-chloro-3-methylphenyl)-1,2-dihydro-2,2,4-trimethyl-5H-chromeno[3,4-f]quinoline], the EC50 was 28 nM in assay [1] (CV-1 cells, read-out: hPR Agonist CV-1 Cells EC50) and > 10000 nM in assay [4]. In addition, the “hPR Agonist CV-1 Cells Eff. (%)” value in assay [1] (CV-1 cells) is on record as 26%. The Emax in assay [2] was 29%. The IC50 in assay [2] (read-out: hPR Antagonists T47D Cells IC50) came out at 4100 nM; in assay [3] (CV-1 cells), 24 nM. Besides, the “hPR Antagonist CV-1 Cells Eff. (%)” value in assay [3] (CV-1 cells) amounted to 62%. Besides, the “hPR Agonist T47D cells Eff. (%)” value in assay [4] was “na (na = not active (i.e. efficacy of <20 and potency of >10,000))”.
For `CC(=O)O[C@]1(C(C)=O)CC[C@H]2[C@@H]3C[C@H](C)C4=CC(=O)CC[C@]4(C)[C@H]3CC[C@@]21C` [MPA, reference compound], in assay [1] (CV-1 cells), the “hPR Agonist CV-1 Cells Eff. (%)” value was determined as 88%. The “hPR Antagonists T47D Cells Eff. (%)” value in assay [2] is “na (na = not active (i.e. efficacy of <20 and potency of >10,000))”. The “hPR Antagonist CV-1 Cells Eff. (%)” value in assay [3] (CV-1 cells) was “na (na = not active (i.e. efficacy of <20 and potency of >10,000))”. In addition, the “hPR Agonist T47D cells Eff. (%)” value in assay [4] is 114%.
Take `CC(=O)[C@H]1CC[C@H]2[C@@H]3CCC4=CC(=O)CC[C@]4(C)[C@H]3CC[C@]12C` [Prog., progesterone, reference compound]: the Emax is 100% in assay [1], < 20% in assay [2], < 20% in assay [3] and 100% in assay [4].
`CC1=CC(C)(C)Nc2ccc3c(c21)C(c1cccc(Br)c1)Oc1c(F)cc(F)cc1-3` (racemic) [Compound 42, (±)-7,9-difluoro-5-(3-bromophenyl)-1,2-dihydro-2,2,4-trimethyl-5H-chromeno[3,4-f]quinoline]: in assay [1] (setting [5]), the EC50 was 3.65 nM.
Same read-out and setting: under `CC1=CC(C)(C)Nc2ccc3c(c21)/C(=C/c1ccccc1)Oc1c(Cl)cccc1-3` [Formula II X=7-Cl Phenyl, reference compound] stands 6.2 nM; under `CC1=CC(C)(C)Nc2ccc3c(c21)/C(=C/c1ccccc1C)Oc1cc(F)c(F)cc1-3` [Formula II X=8,9-diF 2-Me-Ph, reference compound], 13 nM; under `CC1=CC(C)(C)Nc2ccc3c(c21)/C(=C/c1ccccc1)Oc1ccc(F)cc1-3` [Formula II X=9-F Phenyl, reference compound], 5.25 nM.
Still for that read-out and setting: as for `COc1ccc2c(c1)O/C(=C\c1ccccc1Cl)c1c-2ccc2c1C(C)=CC(C)(C)N2` [Formula II X=8-OMe 2-Cl-Ph, reference compound], the figure is > 1000 nM; as for `C=CCC1Oc2ccc(F)cc2-c2ccc3c(c21)C(C)=CC(C)(C)N3` (stereo not shown) [Formula I X=9-F Allyl, reference compound], 7.5 nM; as for `COc1ccc2c(c1)-c1ccc3c(c1/C(=C/c1ccccc1)O2)C(C)=CC(C)(C)N3` [Formula II X=9-OMe Phenyl, reference compound], 67 nM.
Consider `CCC1Oc2ccc(F)cc2-c2ccc3c(c21)C(C)=CC(C)(C)N3` (stereo not shown) [Formula I X=9-F Et, reference compound], for which, in assay [1] (setting [5]), the EC50 amounted to 9 nM.
Still for that read-out and setting: as for `COc1ccc2c(c1)O/C(=C\c1ccncc1)c1c-2ccc2c1C(C)=CC(C)(C)N2` [Formula II X=8-OMe 4-pyridinyl, reference compound], the figure is 36 nM; as for `CC1=CC(C)(C)Nc2ccc3c(c21)/C(=C/c1ccccc1)Oc1ccc(O)cc1-3` [Formula II X=9-OH Phenyl, reference compound], 54.4 nM; as for `CC1=CC(C)(C)Nc2ccc3c(c21)/C(=C/c1ccc(F)cc1)Oc1c(F)cc(F)cc1-3` [Compound 16, 7,9-difluoro-5(Z)-(4-fluorobenzylidene)-1,2-dihydro-2,2,4-trimethyl-5H-chromeno[3,4-f]quinoline], 3.7 nM.
On the same count and under the same terms, as for `CC1=CC(C)(C)Nc2ccc3c(c21)/C(=C/c1cc(F)ccc1C)Oc1ccccc1-3` [Formula II X=H 2-Me-5-F-Ph, reference compound], the figure is 2.6 nM; as for `CC1=CC(C)(C)Nc2ccc3c(c21)C(c1cccc(C(F)(F)F)c1)Oc1c(F)cc(F)cc1-3` (racemic) [Compound 56, (±)-7,9-difluoro-5-[3-(trifluoromethyl)phenyl]-1,2-dihydro-2,2,4-trimethyl-5H-chromeno[3,4-f]quinoline], 1.6 nM.
Still for that read-out and setting: as for `CC1=CC(C)(C)Nc2ccc3c(c21)/C(=C/c1cc(F)ccc1F)Oc1ccc(O)cc1-3` [Formula II X=9-OH 2,5-diF-Ph, reference compound], the figure is 10 nM; as for `C=CCC1Oc2c(F)cc(F)cc2-c2ccc3c(c21)C(C)=CC(C)(C)N3` (racemic) [Compound 55, (±)-7,9-difluoro-5-allyl-1,2-dihydro-2,2,4-trimethyl-5H-chromeno[3,4-f]quinoline], 3.6 nM.
Take `CC1=CC(C)(C)Nc2ccc3c(c21)/C(=C/c1ccccc1C)Oc1ccc(Cl)cc1-3` [Formula II X=9-Cl 2-Me-Ph, reference compound]: the EC50 in assay [1] (setting [5]) turned out to be 8.5 nM.
Same read-out and setting: as for `CC1=CC(C)(C)Nc2ccc3c(c21)/C(=C/c1ccccc1F)Oc1ccc(F)cc1-3` [Formula II X=9-F 2-F-Ph, reference compound], the figure is 7.3 nM; as for `CC1=CC(C)(C)Nc2ccc3c(c21)/C(=C/c1ccc(F)cc1)Oc1ccc(F)cc1-3` [Formula II X=9-F 4-F-Ph, reference compound], 3.95 nM.
Still for that read-out and setting: under `CC1=CC(C)(C)Nc2ccc3c(c21)/C(=C/c1ccccc1F)Oc1ccc(Cl)cc1-3` [Formula II X=9-Cl 2-F-Ph, reference compound] stands 26.5 nM; under `CC1=CC(C)(C)Nc2ccc3c(c21)/C(=C/c1ccccc1C)Oc1c(F)cc(F)cc1-3` [Compound 81, 7,9-difluoro-5(Z)-(2-methylbenzylidene)-1,2-dihydro-2,2,4-trimethyl-5H-chromeno[3,4-f]quinoline], 1.66 nM; under `CC1=CC(C)(C)Nc2ccc3c(c21)/C(=C/c1ccccc1)Oc1ccc(Cl)cc1-3` [Formula II X=9-Cl Phenyl, reference compound], 6.24 nM.
Consider `COc1ccc2c(c1)O/C(=C\c1ccncc1C)c1c-2ccc2c1C(C)=CC(C)(C)N2` [Formula II X=8-OMe 3-Me-4-pyridinyl, reference compound], for which the EC50 in assay [1] (setting [5]) came to 24 nM.
On the same count and under the same terms, under `COc1ccc2c(c1)-c1ccc3c(c1C(c1cccc(C)c1)O2)C(C)=CC(C)(C)N3` (stereo not shown) [Formula I X=9-OMe 3-Me-Ph, reference compound] stands 11 nM.
On the same count and under the same terms, as for `CC1=CC(C)(C)Nc2ccc3c(c21)C(c1cccc(C(F)(F)F)c1)Oc1ccc(Cl)cc1-3` (stereo not shown) [Formula I X=9-Cl 3-CF3-Ph, reference compound], the figure is 7.4 nM.
On the same count and under the same terms, as for `CC1=CC(C)(C)Nc2ccc3c(c21)/C(=C/c1cccc(F)c1)Oc1cc(F)ccc1-3` [Formula II X=8-F 3-F-Ph, reference compound], the figure is 109 nM; as for `CC1=CC(C)(C)Nc2ccc3c(c21)C(c1cccc(C)c1)Oc1ccc(C)cc1-3` (stereo not shown) [Formula I X=9-Me 3-Me-Ph, reference compound], 44 nM.
